# US20070148723A1, “METHOD AND APPARATUS FOR DETECTING PRESENCE OF TOXIC MATERIAL WITHIN SAMPLE” (SAMSUNG ELECTRONICS CO., LTD., priority 2005, published 2007)
# Tests used:
# [1] = test system: electron transfer system of sub-mitochondrial particles; assay type: biochemical; conditions: for cathode peak current at 1.019 V relative to a sample of 0 wt %: 2.5 wt %, FIG. 4 / FIG. 5
# From the text: FIGS. 1A is a diagram of an exemplary embodiment of a current measuring device; and FIG. 1B is a schematic diagram of an exemplary embodiment of a current measuring apparatus. Referring to FIG. 1A, a reaction vessel 10 includes an Ag/AgCl standard electrode 20 (RE in FIG. 1B), a platinum working electrode 30 (WE in FIG. 1B), and a platinum counter electrode 40 (CE in FIG. 1B). The standard electrode 20, the working electrode 30, and the counter electrode 40 are connected to a voltmeter 50 (e.g., a Perkin-Elmer VMP multichannel potentiostat; V in FIG. 1B). An X/Y plotter 60 is connected to the voltmeter 50. 0.5× PBS including 0.5 mg/ml of SMP (submitochondrial particle) (Havard Bioscience), 6 mM of NADH, and 50 mM of KCl was allowed to react at ambient temperature for 1 hour. […] The cyclic voltammogram was measured with a scan speed of 50 mV/sec CV at a sweep range of 0.85 to 1.35 V. […] FIG. 3 is a graph showing the cyclic voltammogram of 2.5 mM Ru(bpy)3^2+ in phosphate-buffered saline (PBS). Then, ethanol samples having final concentrations (on a weight basis) of 0 wt %, 2.5 wt %, 5 wt %, and 10 wt %, or a sample having 2.5 wt % of sorbitol was added to 0.5× PBS including 0.5 mg/ml of SMP, (submitochondrial particle), 6 mM of NADH, and 50 mM of KCl to prepare 7 ml of a final reaction solution and was allowed to react for 1 hour at ambient temperature. Next, absorbance of the final reaction solution was measured at 340 nanometers (nm) using a spectrophotometer and the concentration of NADH was measured using an optical method. […] The cyclic voltammogram was measured with a scan speed of 50 mV/sec CV at a sweep range of 0.85 to 1.35V.
# [2] = test system: electron transfer system of sub-mitochondrial particles; assay: Optical method: NADH concentration by absorbance at 340 nm of SMP/NADH reaction solution; assay type: biochemical; conditions: 2.5 wt %
# Experimental: Then, ethanol samples having final concentrations (on a weight basis) of 0 wt %, 2.5 wt %, 5 wt %, and 10 wt %, or a sample having 2.5 wt % of sorbitol was added to 0.5× PBS including 0.5 mg/ml of SMP, (submitochondrial particle), 6 mM of NADH, and 50 mM of KCl to prepare 7 ml of a final reaction solution and was allowed to react for 1 hour at ambient temperature. Next, absorbance of the final reaction solution was measured at 340 nanometers (nm) using a spectrophotometer and the concentration of NADH was measured using an optical method. […] The cyclic voltammogram was measured with a scan speed of 50 mV/sec CV at a sweep range of 0.85 to 1.35V.
# [3] = 0.5 mg/ml SMP, 6 mM NADH, 1 hour at ambient temperature
SMILES,effect on electron transfer reaction of sub-mitochondrial particles (toxicity) [1],"cathode peak current at 1.019 V in a cyclic voltammogram as concentration increases ([1]; 0, 2.5, 5 and 10 wt %, 0.5 mg/ml SMP, 6 mM NADH, 1 hour at ambient temperature, FIG. 4)","cathode peak current at 1.019 V relative to a sample of 0 wt % [1, 3]",toxicity by optical measurement ([2]; conclusion from absorbance at 340 nm),"absorbance at 340 nm compared to a sample of 0 wt % ([2]; spectrophotometer, data not illustrated)"
CCO [ethanol],obstructs the electron transfer reaction of sub-mitochondrial particles,"moves towards in less negative (i.e., more positive, cathodic) direction",moves toward a less negative value,,
OC[C@@H](O)[C@@H](O)[C@H](O)[C@@H](O)CO [sorbitol],does not include toxic material,,moves towards a more negative value,no toxicity,no changes
